Laboratory results from the supplement of paper PMC10307832.

Assays:
Assay in all cases: relative viability (nuclei count vs DMSO), 5 days (fraction); higher = more cells survive
[1] = compound: CCOc1cc2ncc(C#N)c(Nc3ccc(OCc4ccccn4)c(Cl)c3)c2cc1NC(=O)/C=C/CN(C)C [Neratinib] + CCNC(=O)c1noc(-c2cc(C(C)C)c(O)cc2O)c1-c1ccc(CN2CCOCC2)cc1 [Luminespib] (partner 0.01 µM)
Procedure, shortened: (§1)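 Relative viability divides the nuclei count in treated wells by that in vehicle wells. Lung cancer cell lines were seeded in 1536-well plates, dosed by pin tool the next day, and fixed and stained after 5 days in one step with final 0.05% Triton X-100, 1% formaldehyde and 1 ug/ml Hoechst. Dosing was a single drug or a fixed anchor-drug dose plus five library-drug doses (not always all listed) in √10 steps, and values are medians of duplicate plates imaged at 4×.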

[2] = compound: CCOc1cc2ncc(C#N)c(Nc3ccc(OCc4ccccn4)c(Cl)c3)c2cc1NC(=O)/C=C/CN(C)C [Neratinib] + Cc1cc(Nc2cc(N3CCN(C)CC3)nc(Sc3ccc(NC(=O)C4CC4)cc3)n2)n[nH]1 [Tozasertib] (partner 0.1 µM)
Procedure, shortened: as §1

[3] = compound: CCOc1cc2ncc(C#N)c(Nc3ccc(OCc4ccccn4)c(Cl)c3)c2cc1NC(=O)/C=C/CN(C)C [Neratinib] + Cc1nc(NC(=O)N2CCC[C@H]2C(N)=O)sc1-c1ccnc(C(C)(C)C(F)(F)F)c1 [Alpelisib] (partner 2 µM)
Procedure, shortened: as §1

[4] = compound: CCOc1cc2ncc(C#N)c(Nc3ccc(OCc4ccccn4)c(Cl)c3)c2cc1NC(=O)/C=C/CN(C)C [Neratinib] + Cc1nc(Nc2ncc(C(=O)Nc3c(C)cccc3Cl)s2)cc(N2CCN(CCO)CC2)n1 [Dasatinib] (partner 0.075 µM)
Procedure, shortened: as §1

| Cell Line | relative viability ([1]; first compound 0.01 µM) | relative viability ([1]; first compound 0.03162 µM) | relative viability ([1]; first compound 0.1 µM) | relative viability ([1]; first compound 0.3162 µM) | relative viability ([1]; first compound 1 µM) | relative viability ([2]; first compound 0.01 µM) | relative viability ([2]; first compound 0.03162 µM) | relative viability ([2]; first compound 0.1 µM) | relative viability ([2]; first compound 0.3162 µM) | relative viability ([2]; first compound 1 µM) | relative viability ([3]; first compound 0.01 µM) | relative viability ([3]; first compound 0.03162 µM) | relative viability ([3]; first compound 0.1 µM) | relative viability ([3]; first compound 0.3162 µM) | relative viability ([3]; first compound 1 µM) | relative viability ([4]; first compound 0.01 µM) | relative viability ([4]; first compound 0.03162 µM) | relative viability ([4]; first compound 0.1 µM) | relative viability ([4]; first compound 0.3162 µM) | relative viability ([4]; first compound 1 µM) |
| --- | --- | --- | --- | --- | --- | --- | --- | --- | --- | --- | --- | --- | --- | --- | --- | --- | --- | --- | --- | --- |
| HCC-827 | 1.08 | 1.03 | 0.703 | 0.176 | 0.18 | 0.414 | 0.428 | 0.396 | 0.268 | 0.136 | 1.05 | 1.11 | 0.967 | 0.583 | 0.182 | 0.421 | 0.39 | 0.366 | 0.248 | 0.169 |
| HOP-62 | 0.917 | 0.974 | 0.893 | 0.884 | 0.927 | 0.444 | 0.354 | 0.33 | 0.369 | 0.32 | 0.903 | 1 | 0.847 | 0.967 | – | 0.636 | 0.67 | 0.602 | 0.686 | 0.676 |
| IA-LM | – | – | – | – | – | – | – | – | – | – | 0.846 | 0.894 | 0.647 | 0.782 | 0.486 | – | – | – | – | – |
| LC-2-ad | 1.11 | 1.1 | 1.04 | 0.87 | 0.465 | 0.448 | 0.424 | 0.455 | 0.388 | 0.277 | 0.923 | 0.95 | 0.734 | 0.783 | 0.312 | 0.569 | 0.697 | 0.545 | 0.304 | 0.342 |
| LCLC-97TM1 | 0.823 | 0.837 | 0.762 | 0.684 | 0.589 | 0.239 | 0.189 | 0.298 | 0.238 | 0.121 | 0.26 | 0.254 | 0.24 | 0.255 | 0.115 | 1.05 | 0.859 | 0.858 | 0.726 | 0.693 |
| LCLC-103H | 0.921 | 0.981 | 0.883 | 0.93 | 0.647 | 0.44 | 0.503 | 0.502 | 0.511 | 0.365 | 1 | 1 | 0.711 | 0.966 | 0.629 | 0.551 | 0.5 | 0.415 | 0.375 | 0.346 |
| LK-2 | 0.183 | 0.21 | 0.197 | 0.18 | 0.125 | 0.159 | 0.179 | 0.205 | 0.189 | 0.172 | 1.15 | 1.17 | – | 0.816 | 0.327 | 0.28 | 0.275 | 0.354 | 0.258 | 0.218 |
| LOU-NH91 | 0.38 | 0.328 | 0.338 | 0.331 | 0.287 | 0.635 | 0.665 | 0.527 | 0.503 | 0.411 | 0.628 | 0.598 | 0.507 | 0.447 | 0.475 | 0.579 | 0.504 | 0.448 | 0.413 | 0.377 |
| LU99A | 0.268 | 0.19 | 0.231 | 0.333 | 0.22 | 0.286 | 0.279 | 0.274 | 0.25 | 0.19 | 0.66 | 0.625 | 0.483 | 0.323 | 0.259 | 0.636 | 0.352 | 0.551 | 0.51 | 0.278 |
